The source of these data is paper PMC6669608, “Evaluation of Oxasqualenoids from the Red Alga Laurencia viridis against Acanthamoeba” (Marine Drugs, 2019).

Like-named read-outs stand apart in the source and are kept apart here.

Series [1] has as its system Acanthamoeba castellanii Neff trophozoites. Also on record: method as in PMID 30423882. As to conditions: previous work; read-out: IC50 against Acanthamoeba castellanii Neff; cited from earlier work.
Series [2] in a line: Cytotoxicity assay (alamarBlue). Format: cell-based, murine. Details: CC50, toxicity against murine macrophage J774A.1 (unit not given): unit not given beside the values. To be noted: mouse, 24 h, 37 °C, read-out: CC50, toxicity against murine macrophage J774.A1. How it is done:
(§1) The antiamoeboid activity of the compounds was evaluated against Acanthamoeba castellanii Neff (ATCC 30010) type strain from the American Type Culture Collection. This strain was axenically incubated in PYG medium (0.75% (w/v) proteose Peptone, 0.75% (w/v) Yeast extract, and 1.5% (w/v) Glucose) supplemented with 10 µg/mL gentamicin (Sigma-Aldrich, Madrid, Spain). As for the cytotoxicity assays, murine macrophages J774A.1 (ATCC TIB-67) were used, cultivated in DMEM medium (Dulbecco’s modified eagle medium, Gibco Life Technologies, California, USA) with 10% supplement of fetal bovine serum (FBS) and 10 µg/mL gentamicin at 37 °C in a 5% CO2 incubator.
(§2) The cytotoxicity of the tested compounds was determined in vitro with murine macrophages (J774A.1). For this assay, the DMEM culture medium was changed from RPMI without phenol red (Roswell Park Memorial Institute, Thermo Fisher Scientific Inc., Waltham, MA, USA) to L-Glutamine supplemented with 10% (v/v) inactivated FBS and with 10 µg/mL gentamicin. In this assay, the macrophages were counted and seeded into a 96-well microtiter plate, adding 50 µL to each well from a stock solution of 2 × 10^5 cells/mL. Cells were then left to adhere for 15 min to the plate bottom and were checked with the inverted microscope Leica DMIL. After that, 50 µL of a serial dilution of the compounds was added to the 96-well microtiter plate. Finally, alamarBlue™ was added into each well at an amount equal to 10% of the final volume and incubated at 37 °C in the presence of CO2 at 5% for 24 h. After this period of time, as in the in vitro anti-Acanthamoeba assay, the fluorescence was determined with an EnSpire Multimode Plate Reader (PerkinElmer, Inc, Waltham, MA, USA) at a wavelength of 570/585 nm. The cytotoxicity concentration to inhibit the growth of 50% of murine macrophages (CC50) was calculated through nonlinear regression analysis with 95% confidence limits using the software Sigma Plot 12.0 (Systat Software, Inc, San Jose, CA 95110 USA). Experiments were performed three times each, allowing for standard deviation.
(In general: Resazurin is reduced to fluorescent resorufin, in cell work by metabolically active cells.)

Series [3] has as its system Acanthamoeba castellanii Neff trophozoites. The series is described as follows: In vitro activity against Acanthamoeba trophozoites (alamarBlue colorimetric assay). Format: cell-based, Acanthamoeba castellanii Neff (ATCC 30010). To be noted: 96 h, read-out: IC50 against Acanthamoeba castellanii Neff. The protocol:
as §1
The in vitro activities of the different compounds of Laurencia were evaluated using a previously developed colorimetric assay based on the alamarBlue™ Cell Viability Reagent assay (Life Technologies, Barcelona, Spain). Briefly, 50 µL of 5 × 10⁴ trophozoites/mL were seeded onto a 96-well microtiter plate. After 15 min, the adherence of the cells to the plate bottom was confirmed by the use of the inverted microscope Leica DMIL (Leica, Wetzlar, Germany). Furthermore, 50 µL of serial dilutions of each compound was added to the 96-well microtiter plate. Finally, alamarBlue™ was placed into each well at 10% of the final volume and incubated at 26 °C with slight agitation. After 96 h, the fluorescence was measured with EnSpire Multimode Plate Reader (Perkin Elmer, Madrid, Spain) at a wavelength of 570/585 nm. The inhibitory concentration to inhibit the growth of 50% of the parasites (IC50) was calculated through nonlinear regression analysis with 95% confidence limits using the software Sigma Plot 12.0 (Systat Software Inc., London, UK). The experiments were performed three times each, allowing for standard deviation.

Series [4] deals with murine macrophages J774A.1. The series is described as follows: Cytotoxicity assay (alamarBlue). Details: CC50, toxicity against murine macrophage J774A.1 (unit not given): unit not given beside the values. The series is classed as cell-based. To be noted: for CC50, toxicity against murine macrophage J774A.1 (unit not given): mouse. How it is done:
as §1, §2

Series [5] has as its system Acanthamoeba castellanii Neff trophozoites. The series is described as follows: In vitro activity against Acanthamoeba trophozoites (alamarBlue colorimetric assay). To be noted: 42.5 µM (25 µg/mL). Format: cell-based, Acanthamoeba castellanii Neff (ATCC 30010).

The term IC50 denotes the midpoint of a concentration-inhibition curve. As for 3α-bromojohnstane, the IC50 in series [1] was 41.5 µM.
The CC50 is the concentration that lowers cell viability or growth by half. Take `C[C@@H]1[C@H](O)[C@@H](C)/C=C/C=C/C=C/C=C/C=C/C=C/C=C/[C@H](O[C@@H]2O[C@H](C)[C@@H](O)[C@H](N)[C@@H]2O)C[C@@H]2O[C@](O)(C[C@@H](O)C[C@@H](O)[C@H](O)CC[C@@H](O)C[C@@H](O)CC(=O)O[C@H]1C)C[C@H](O)[C@H]2C(=O)O` [Amphotericin B, amphotericin B, reference compound]: the CC50 at 24 h in series [2] (J774A.1 murine macrophages) is above 100 µM. For the same compound, the half-inhibitory concentration (IC50) in series [3] (trophozoites, 26 °C) is 39.6 ± 0.56 µM.
For the compound `[H]/N=C(\N/C(=N/[H])NCCCCCCNC(=N)NC(=N)Nc1ccc(Cl)cc1)Nc1ccc(Cl)cc1` [Chlorhexidine, chlorhexidine, reference compound], the CC50 at 24 h in series [2] (J774A.1 murine macrophages) stood at 6.64 ± 0.35 µM.
Turning to `CC(C)(O)[C@H]1CC[C@](C)([C@@H](O)CC[C@](C)(O)[C@H]2CC[C@H]3O[C@@H]([C@]4(C)CC[C@@H](Br)C(C)(C)O4)CC[C@]3(C)O2)O1` [Compound 2, thyrsiferol], in series [4], the “toxicity against murine macrophages (in words)” value is on record as “not toxic against murine macrophages”. The “CC50, toxicity against murine macrophage J774A.1 (unit not given)” value in series [4] (24 h) was below 50. Further, in series [2], the 50% cytotoxic concentration (CC50) at 24 h was above 100 µM. For the same compound, in series [3], the IC50 was 14 ± 1.57 µM.
As to `C=C(CC[C@H](O)[C@@]1(C)CC[C@@H](O)C(C)(C)O1)[C@H]1CC[C@H]2O[C@@H]([C@]3(C)CC[C@@H](Br)C(C)(C)O3)CC[C@]2(C)O1` [Compound 3, iubol], in series [2], the cytotoxic concentration (CC50) was 7.72 ± 0.22 µM. For the same compound, the “inhibitory effect on the growth of A. castellanii trophozoites (microscopy)” value in series [5] was “many of the treated cells were dead”. Also, in series [3] (trophozoites, 26 °C), the concentration for half-maximal inhibition (IC50) came out at 5.3 ± 0.87 µM.
Regarding `C=C(CC[C@H](O)[C@@]1(C)CC[C@](O)(C(C)(C)O)O1)[C@H]1CC[C@H]2O[C@@H]([C@]3(C)CC[C@@H](Br)C(C)(C)O3)CC[C@]2(C)O1` [Compound 4, 22-hydroxydehydrothyrsiferol], in series [4], the “toxicity against murine macrophages (in words)” value is given as “not toxic against murine macrophages” and the “CC50, toxicity against murine macrophage J774A.1 (unit not given)” value is reported as below 50. Besides, the CC50 in series [2] is above 100 µM. Moreover, the IC50 in series [3] (trophozoites, 26 °C) is 17 ± 4.57 µM.
`C=C(C)[C@@H]1CC[C@@](C)([C@H]2CC[C@]3(C)O[C@@H](C(=C)CC[C@H](O)[C@@]4(C)CC[C@H](C(C)(C)O)O4)CC[C@H]3O2)O1` [Compound 5, 1,2-dehydropseudodehydrothyrsiferol]: the CC50 at 24 h in series [2] (J774A.1 murine macrophages) was above 100 µM. Moreover, the IC50 in series [3] (trophozoites, 26 °C) amounted to 105 ± 1.72 µM.
Turning to `CC(C)(O)[C@H]1CC[C@](C)([C@@H]2CC[C@@](C)([C@H]3CC[C@H]4O[C@@H]([C@]5(C)CC[C@@H](Br)C(C)(C)O5)CC[C@]4(C)O3)O2)O1` [Compound 6, saiyacenol A], the CC50 in series [2] was 59.9 ± 8.5 µM. Further, in series [3] (trophozoites, 26 °C), the IC50 came out at 55.4 ± 6.56 µM.
For the compound `CC(C)(O)[C@H]1CC[C@](C)([C@@H]2CC[C@](C)([C@H]3CC[C@H]4O[C@@H]([C@]5(C)CC[C@@H](Br)C(C)(C)O5)CC[C@]4(C)O3)O2)O1` [Compound 7, saiyacenol B], the CC50 in series [2] was above 100 µM. In series [3] (trophozoites, 26 °C), the IC50 was 77.9 ± 3.3 µM.
Taken in the same sequence, the figures for `CC(C)(O)[C@H]1CC[C@](C)([C@@H]2CC[C@@](CO)([C@H]3CC[C@H]4O[C@@H]([C@]5(C)CC[C@@H](Br)C(C)(C)O5)CC[C@]4(C)O3)O2)O1` [Compound 8, 28-hydroxysaiyacenol A] were above 100 µM and 66.2 ± 3.81 µM.
For `CC(C)(O)[C@H]1CC[C@](C)([C@@H]2CC[C@](CO)([C@H]3CC[C@H]4O[C@@H]([C@]5(C)CC[C@@H](Br)C(C)(C)O5)CC[C@]4(C)O3)O2)O1` [Compound 9, 28-hydroxysaiyacenol B] the same measures were above 100 µM and 59.9 ± 10.1 µM.
With `CC(C)(O)C1CCC(C)(C2CCC(C)(C3CCC(C(C)(O)CCC4OC(C)(C)C5CCC4(C)O5)O3)O2)O1` (centres unmarked) [Compound 10, nivariol A], in series [2] (J774A.1 murine macrophages), the CC50 at 24 h was above 100 µM. Further, in series [3] (trophozoites, 26 °C), the IC50 was 102 ± 9.57 µM.
For `CC1(C)O[C@](C)([C@H]2CC[C@]3(C)OC(=O)CC[C@H]3O2)CC[C@H]1Br` [Compound 11, adejene B] the same measures were above 100 µM and 48.3 ± 0.55 µM.
As to `C=C(CC[C@H](OS(=O)(=O)O)[C@@]1(C)CC[C@H](C(C)(C)O)O1)[C@H]1CC[C@H]2O[C@@H]([C@]3(C)CC[C@@H](Br)C(C)(C)O3)CC[C@]2(C)O1` [Compound 12, 18-sulphatedehydrothyrsiferol], the CC50 in series [2] is above 100 µM. In series [3] (trophozoites, 26 °C), the concentration for half-maximal inhibition (IC50) amounted to 43.18 ± 0.14 µM.
Taken in the same sequence, the figures for `C=C(CCC(=O)[C@@]1(C)CC[C@H](C(C)(C)O)O1)[C@H]1CC[C@H]2O[C@@H]([C@]3(C)CC[C@@H](Br)C(C)(C)O3)CC[C@]2(C)O1` [Compound 13, 18-ketodehydrothyrsiferol] were 23.4 ± 1.76 µM and 29.1 ± 2.84 µM.
Taken in the same sequence, the figures for `CC(C)(O)[C@H]1CC[C@](C)([C@@H]2CC[C@@](CI)([C@H]3CC[C@H]4O[C@@H]([C@]5(C)CC[C@@H](Br)C(C)(C)O5)CC[C@]4(C)O3)O2)O1` [Compound 14, 28-iodosaiyacenol A] were 29.45 ± 0.2 µM and 50.5 ± 3.05 µM.
Taken in the same sequence, the figures for `CC(C)(O)[C@H]1CC[C@](C)([C@@H]2CC[C@](CI)([C@H]3CC[C@H]4O[C@@H]([C@]5(C)CC[C@@H](Br)C(C)(C)O5)CC[C@]4(C)O3)O2)O1` [Compound 15, 28-iodosaiyacenol B] were above 100 µM and 54.3 ± 6.56 µM.
In the case of `CC(C)(O)[C@H]1CC[C@](C)([C@@H](O)CCC(O)(CO)[C@H]2CC[C@H]3O[C@@H]([C@]4(C)CC[C@@H](Br)C(C)(C)O4)CC[C@]3(C)O2)O1` (some centres unmarked) [Compound 16, 28-hydroxythyrsiferol], the CC50 in series [2] is above 100 µM. The IC50 in series [3] (trophozoites, 26 °C) stood at 104 ± 8.42 µM.
Regarding `C[C@@H](c1ncncc1F)[C@](O)(Cn1cncn1)c1ccc(F)cc1F` [Voriconazole, voriconazole, reference compound], the CC50 at 24 h in series [2] (J774A.1 murine macrophages) worked out at 2.64 ± 0.27 µM. Moreover, the IC50 in series [3] (trophozoites, 26 °C) is 0.94 ± 0.29 µM.
